Measured values from ChEMBL document CHEMBL3046339, “Insecticidal activity of Maytenus species (Celastraceae) nortriterpene quinone methides against codling moth, Cydia pomonella (L.) (Lepidoptera: tortricidae)” (2000).

Assays:
Format in all cases: functional
[1] = tested on: Cydia pomonella; test: Insecticidal activity against Cydia pomonella (codling moth) assessed as mortality at 8 mg/kg diet topically measured after 10 days of continuous exposure (reference value: 3.3 +/- 3.3%); conditions: topical, 240 h
[2] = tested on: Cydia pomonella; test: Insecticidal activity against Cydia pomonella (codling moth) assessed as mortality at 6 mg/kg diet topically measured after 5 days of continuous exposure (reference value: 0%); conditions: topical, 120 h
[3] = tested on: Cydia pomonella; test: Insecticidal activity against Cydia pomonella (codling moth) assessed as mortality at 4 mg/kg diet topically measured after 10 days of continuous exposure (reference value: 3.3 +/- 3.3%); conditions: topical, 240 h
[4] = tested on: Cydia pomonella; test: Insecticidal activity against Cydia pomonella (codling moth) assessed as mortality at 20 mg/kg diet topically measured after 5 days of continuous exposure (reference value: 0%); conditions: topical, 120 h
[5] = tested on: Cydia pomonella; test: Insecticidal activity against Cydia pomonella (codling moth) at 2 mg/kg assessed as growth regulation measured as number of head capsules of larvae after 10 days of continuous exposure Rvb = (1.5 +/- 0.2%)
[6] = tested on: Cydia pomonella; test: Insecticidal activity against Cydia pomonella (codling moth) at 20 mg/kg assessed as growth regulation measured as number of head capsules of larvae after 10 days of continuous exposure Rvb = (1.5 +/- 0.2%)
[7] = tested on: Cydia pomonella; test: Antifeedant activity against Cydia pomonella (codling moth) at 16 mg/kg diet topically measured after 5 days of continuous exposure (reference value: 6.7 +/- 6.7%)
[8] = tested on: Cydia pomonella; test: Insecticidal activity against Cydia pomonella (codling moth) at 12 mg/kg assessed as growth regulation measured as number of head capsules of larvae after 5 days of continuous exposure (reference value: 0.2 +/- 0.2%)
[9] = tested on: Cydia pomonella; test: Antifeedant activity against Cydia pomonella (codling moth) at 4 mg/kg diet topically measured after 5 days of continuous exposure (reference value: 6.7 +/- 6.7%)
[10] = tested on: Cydia pomonella; test: Insecticidal activity against Cydia pomonella (codling moth) assessed as mortality at 1 mg/kg diet topically measured after 5 days of continuous exposure (reference value: 0%); conditions: topical, 120 h
[11] = tested on: Cydia pomonella; test: Insecticidal activity against Cydia pomonella (codling moth) assessed as mortality at 4 mg/kg diet topically measured after 5 days of continuous exposure (reference value: 0%); conditions: topical, 120 h
[12] = tested on: Cydia pomonella; test: Insecticidal activity against Cydia pomonella (codling moth) at 18 mg/kg assessed as growth regulation measured as number of head capsules of larvae after 10 days of continuous exposure Rvb = (1.5 +/- 0.2%)
[13] = tested on: Cydia pomonella; test: Antifeedant activity against Cydia pomonella (codling moth) at 12 mg/kg diet topically measured after 10 days of continuous exposure (reference value: 6.7 +/- 6.7%)
[14] = tested on: Cydia pomonella; test: Antifeedant activity against Cydia pomonella (codling moth) at 1 mg/kg diet topically measured after 10 days of continuous exposure (reference value: 6.7 +/- 6.7%)
[15] = tested on: Cydia pomonella; test: Insecticidal activity against Cydia pomonella (codling moth) at 2 mg/kg assessed as growth regulation measured as number of head capsules of larvae after 5 days of continuous exposure (reference value: 0.2 +/- 0.2%)
[16] = tested on: Cydia pomonella; test: Antifeedant activity against Cydia pomonella (codling moth) at 1 mg/kg diet topically measured after 5 days of continuous exposure (reference value: 6.7 +/- 6.7%)
[17] = tested on: Cydia pomonella; test: Insecticidal activity against Cydia pomonella (codling moth) assessed as mortality at 12 mg/kg diet topically measured after 5 days of continuous exposure (reference value: 0%); conditions: topical, 120 h
[18] = tested on: Cydia pomonella; test: Antifeedant activity against Cydia pomonella (codling moth) at 4 mg/kg diet topically measured after 10 days of continuous exposure (reference value: 6.7 +/- 6.7%)
[19] = tested on: Cydia pomonella; test: Antifeedant activity against Cydia pomonella (codling moth) at 20 mg/kg diet topically measured after 10 days of continuous exposure (reference value: 6.7 +/- 6.7%)
[20] = tested on: Cydia pomonella; test: Antifeedant activity against Cydia pomonella (codling moth) at 12 mg/kg diet topically measured after 5 days of continuous exposure (reference value: 6.7 +/- 6.7%)
[21] = tested on: Cydia pomonella; test: Antifeedant activity against Cydia pomonella (codling moth) at 18 mg/kg diet topically measured after 5 days of continuous exposure (reference value: 6.7 +/- 6.7%)

CC1=C(O)C(=O)C=C2C1=CC=C1[C@@]2(C)CC[C@@]2(C)[C@@H]3C[C@](C)(O)C(=O)C[C@]3(C)CC[C@]12C [20ALPHA-HYDROXYTINGENONE]
mortality at 8 mg/kg [1]: 43.3%
mortality at 6 mg/kg [2]: 10%
mortality at 4 mg/kg [3]: 16.7%
mortality at 20 mg/kg [4]: 100%
Activity [5]: 1.4
Activity [6]: 0
Activity [7]: 100%
Activity [8]: 0
Activity [9]: 46.7%
mortality at 1 mg/kg [10]: 3.3%
mortality at 4 mg/kg [11]: 6.7%
Activity [12]: 0
Activity [13]: 90%
Activity [14]: 6.7%
Activity [15]: 0.1
Activity [16]: 6.7%
mortality at 12 mg/kg [17]: 53.3%
Activity [18]: 33.3%
Activity [19]: 100%
Activity [20]: 96.7%
Activity [21]: 100%
